Results as given in publication PMC7560342, “In Vitro and In Vivo Evaluation of the Toxic Effects of Dodecylguanidine Hydrochloride” (Toxics, 2020).
“Also recorded” adds a separate entry of the source.

Tests used:
A549 cells = experiment: Cell membrane damage (LDH leakage) assay; type: cell-based, Human; conditions: 1–5000 μg/mL, 24 h
Protocol: Human adenocarcinomic alveolar epithelial (A549) cells were obtained from the Korea Cell Line Bank (Seoul, Korea). Cells were grown in RPMI 1640 medium (Thermo Fisher Scientific, Waltham, MA, USA), containing 10% heat-inactivated fetal bovine serum (Thermo Fisher Scientific, Waltham, MA, USA) and 1% penicillin-streptomycin (Thermo Fisher Scientific, Waltham, MA, USA) under standard cell culture conditions (37 °C, 5% CO2, and 90% humidity).
A549 cells (1 × 10^4 cells) were incubated in 96-well plates overnight, and various concentrations (1, 10, 100, 1000, and 5000 μg/mL) of the eight selected chemicals were added to the cell culture medium. After 24 h of incubation, cell morphology was observed by optical microscopy, and cell viability was evaluated using EZ-Cytox kit (DoGenBio, Seoul, Korea) by quantifying purple formazan crystals. The membrane integrity was examined using an EZ-lactate dehydrogenase (LDH) kit (DoGenBio, Seoul, Korea) to measure the LDH level released from the cytosol into the culture medium. Absorbance was measured using a microplate reader (Tecan, Salzburg, Austria) at a wavelength of 450 nm.

Sprague-Dawley (SD) rats = experiment: Histopathology of nasal cavity and lung after acute inhalation; type: in vivo, rat; conditions: High 68 mg/m^3, 4 h; for Lung: Cell infiltration, terminal bronchiole/alveolar duct, neutrophils/macrophages / Lung: Intraluminal cell debris, terminal bronchiole/alveolar duct / Lung: No specific lesion / Nasal cavity Level 1: Acute inflammation with necrosis, focal / Nasal cavity Level 1: Cell infiltration, lymphocytes, focal / Nasal cavity Level 1: No specific lesion / Nasal cavity Level 2: Acute inflammation with necrosis, focal / Nasal cavity Level 2: Cell infiltration, lymphocytes, focal / Nasal cavity Level 2: No specific lesion / Nasal cavity Level 3: Cell infiltration, lymphocytes, focal / Nasal cavity Level 3: No specific lesion / Nasal cavity Level 4: Cell infiltration, lymphocytes, focal / Nasal cavity Level 4: No specific lesion: cases (percentage) of 5 examined; for Lung: Cell infiltration, terminal bronchiole/alveolar duct, neutrophils/macrophages; Grade: minimal / Lung: Intraluminal cell debris, terminal bronchiole/alveolar duct; Grades: minimal / Nasal cavity Level 1: Acute inflammation with necrosis, focal; Grade: mild / Nasal cavity Level 1: Acute inflammation with necrosis, focal; Grade: minimal / Nasal cavity Level 1: Cell infiltration, lymphocytes, focal; Grade: minimal / Nasal cavity Level 2: Acute inflammation with necrosis, focal; Grade: mild / Nasal cavity Level 2: Acute inflammation with necrosis, focal; Grade: minimal / Nasal cavity Level 2: Cell infiltration, lymphocytes, focal; Grade: minimal / Nasal cavity Level 3: Cell infiltration, lymphocytes, focal; Grade: minimal / Nasal cavity Level 4: Cell infiltration, lymphocytes, focal; Grade: minimal: number of cases
Protocol: (§1) The inhalation aerosols of the DGH solutions were generated using an atomizer with a clean air flow of 250 L/min. For the acute inhalation exposure study, the rats were exposed to 7.8 mg/m^3, 23 mg/m^3, and 70 mg/m^3 DGH for 4 h in the low, middle, and high exposure groups, respectively, and the control rats were exposed to clean air. In the acute toxicity test, all the rats in each group were sacrificed immediately after exposure. Temperature, humidity, air flow, and air pressure were monitored during the exposure using a Model VT3-X15 environmental controller (Sibata, Saitama, Japan). The concentration of DGH was analyzed by sampling the chamber air using a SIP-32L (Sibata, Saitama, Japan) and measuring the weight of the membranes (T60A20, Φ55). The mass median aerodynamic diameter (MMAD) and geometric standard deviation (GSD) of DGH in the exposure chamber were measured using an Andersen cascade impactor (AN-200, Sibata, Saitama, Japan).
After the inhalation of DGH for 4 h, the animals were euthanized. After gross examination, the left lung and nasal cavity of the rats in the control and high-exposure groups were fixed in 10% neutral buffered formalin. The nasal cavity was decalcified with a decalcification solution and then cross-sectioned into four levels as follows: level 1 (posterior part of the upper incisors), level 2 (incisive papilla), level 3 (second palatine crest), level 4 (first upper molar teeth). Following routine tissue processing, the tissues were embedded in paraffin and sectioned into 3 μm thick sections. The tissue sections were stained with hematoxylin and eosin (H&E), and then examined under a light microscope (Olympus BX41, Tokyo, Japan). The lesions were graded according to severity by pathologists.

Sprague-Dawley rats = experiment: Bronchoalveolar lavage fluid (BALF) analysis after acute inhalation; type: in vivo, rat
Protocol: as §1, with “For the acute inhalation exposure study, the rats were exposed to 7.8 mg/m^3, 23 mg/m^3, and 70 mg/m^3 DGH for 4 h in the low, middle, and high exposure groups, respectively, and the control rats were exposed to clean air.” left out
BALF was obtained from the right lung by lavage (twice) with 3 mL phosphate buffered saline (PBS, pH 7.4, magnesium, and calcium free). The BALF samples were centrifuged (1500 rpm, 4 °C, 10 min) and the cell-free supernatant of the first lavage was used for the determination of LDH, total protein, and inflammatory cytokine levels. LDH activity was measured using the EZ-LDH kit (DoGenBio, Seoul, Korea). Total protein content was quantified using a BCA protein assay kit (iNtRON Biotechnology, Seoul, Korea). To evaluate the inflammatory cytokine levels in BALF, tumor necrosis factor-alpha (TNF-α), interleukin-6 (IL-6), interleukin-1 beta (IL-1β), […], and transforming growth factor-beta 1 (TGF-β1) were determined using a Quantikine® enzyme-linked immunosorbent assay kit (R&D Systems, Minneapolis, MN, USA), according to the manufacturer’s instructions. Cells in all lavages were resuspended in PBS, and the total cell count in BALF was quantified using a Vi-Cell® XR analyzer (Beckman Coulter, Brea, CA, USA). Differential cell counts were performed on cytospin preparations (Shadon, Pittsburgh, PA, USA), and the cells were stained with Diff-Quick (Fisher Scientific, Swedesboro, NJ, USA). Polymorphonuclear leukocytes (PMNs) in the BALF were counted using light microscopy (Olympus, Tokyo, Japan).

[1] = male rats, exposure groups, 4 h
[2] = rats, 8.6–68 mg/m^3, 4 h, vs control

SMILES: CCCCCCCCCCCCN=C(N)N.Cl [DGH, Dodecylguanidine hydrochloride]
- Cell membrane damage (LDH leakage) (A549 cells): significant dose-dependent damage to the cell membrane
- Lung: Cell infiltration, terminal bronchiole/alveolar duct, neutrophils/macrophages (Sprague-Dawley (SD) rats; female): 3(60.0)
- Lung: Intraluminal cell debris, terminal bronchiole/alveolar duct (Sprague-Dawley (SD) rats; female): 1(20.0)
- Lung: No specific lesion (Sprague-Dawley (SD) rats; female): 1(20.0)
- Nasal cavity Level 1: Acute inflammation with necrosis, focal (Sprague-Dawley (SD) rats; female): 1(20.0)
- Nasal cavity Level 1: Cell infiltration, lymphocytes, focal (Sprague-Dawley (SD) rats; female): 0(0.00)
- Nasal cavity Level 1: No specific lesion (Sprague-Dawley (SD) rats; female): 4(80.0)
- Nasal cavity Level 2: Acute inflammation with necrosis, focal (Sprague-Dawley (SD) rats; female): 0(0.00)
- Nasal cavity Level 2: Cell infiltration, lymphocytes, focal (Sprague-Dawley (SD) rats; female): 0(0.00)
- Nasal cavity Level 2: No specific lesion (Sprague-Dawley (SD) rats; female): 5(100)
- Nasal cavity Level 3: Cell infiltration, lymphocytes, focal (Sprague-Dawley (SD) rats; female): 1(20.0)
- Nasal cavity Level 3: No specific lesion (Sprague-Dawley (SD) rats; female): 4(80.0)
- Nasal cavity Level 4: Cell infiltration, lymphocytes, focal (Sprague-Dawley (SD) rats; female): 2(40.0)
- Nasal cavity Level 4: No specific lesion (Sprague-Dawley (SD) rats; female): 3(60.0)
- Lung: Cell infiltration, terminal bronchiole/alveolar duct, neutrophils/macrophages; Grade: minimal (Sprague-Dawley (SD) rats; female): 3
- Lung: Intraluminal cell debris, terminal bronchiole/alveolar duct; Grades: minimal (Sprague-Dawley (SD) rats; female): 1
- Nasal cavity Level 1: Acute inflammation with necrosis, focal; Grade: mild (Sprague-Dawley (SD) rats; female): 0
- Nasal cavity Level 1: Acute inflammation with necrosis, focal; Grade: minimal (Sprague-Dawley (SD) rats; female): 1
- Nasal cavity Level 1: Cell infiltration, lymphocytes, focal; Grade: minimal (Sprague-Dawley (SD) rats; female): 0
- Nasal cavity Level 2: Acute inflammation with necrosis, focal; Grade: mild (Sprague-Dawley (SD) rats; female): 0
- Nasal cavity Level 2: Acute inflammation with necrosis, focal; Grade: minimal (Sprague-Dawley (SD) rats; female): 0
- Nasal cavity Level 2: Cell infiltration, lymphocytes, focal; Grade: minimal (Sprague-Dawley (SD) rats; female): 0
- Nasal cavity Level 3: Cell infiltration, lymphocytes, focal; Grade: minimal (Sprague-Dawley (SD) rats; female): 1
- Nasal cavity Level 4: Cell infiltration, lymphocytes, focal; Grade: minimal (Sprague-Dawley (SD) rats; female): 2
- Lung: Cell infiltration, terminal bronchiole/alveolar duct, neutrophils/macrophages (Sprague-Dawley (SD) rats; male): 5(100)
- Lung: Intraluminal cell debris, terminal bronchiole/alveolar duct (Sprague-Dawley (SD) rats; male): 1(20.0)
- Lung: No specific lesion (Sprague-Dawley (SD) rats; male): 0(0.00)
- Nasal cavity Level 1: Acute inflammation with necrosis, focal (Sprague-Dawley (SD) rats; male): 1(20.0)
- Nasal cavity Level 1: Cell infiltration, lymphocytes, focal (Sprague-Dawley (SD) rats; male): 0(0.00)
- Nasal cavity Level 1: No specific lesion (Sprague-Dawley (SD) rats; male): 4(80.0)
- Nasal cavity Level 2: Acute inflammation with necrosis, focal (Sprague-Dawley (SD) rats; male): 1(20.0)
- Nasal cavity Level 2: Cell infiltration, lymphocytes, focal (Sprague-Dawley (SD) rats; male): 0(0.00)
- Nasal cavity Level 2: No specific lesion (Sprague-Dawley (SD) rats; male): 4(80.0)
- Nasal cavity Level 3: Cell infiltration, lymphocytes, focal (Sprague-Dawley (SD) rats; male): 2(40.0)
- Nasal cavity Level 3: No specific lesion (Sprague-Dawley (SD) rats; male): 3(60.0)
- Nasal cavity Level 4: Cell infiltration, lymphocytes, focal (Sprague-Dawley (SD) rats; male): 0(0.00)
- Nasal cavity Level 4: No specific lesion (Sprague-Dawley (SD) rats; male): 5(100)
- Lung: Cell infiltration, terminal bronchiole/alveolar duct, neutrophils/macrophages; Grade: minimal (Sprague-Dawley (SD) rats; male): 5
- Lung: Intraluminal cell debris, terminal bronchiole/alveolar duct; Grades: minimal (Sprague-Dawley (SD) rats; male): 1
- Nasal cavity Level 1: Acute inflammation with necrosis, focal; Grade: mild (Sprague-Dawley (SD) rats; male): 1
- Nasal cavity Level 1: Acute inflammation with necrosis, focal; Grade: minimal (Sprague-Dawley (SD) rats; male): 0
- Nasal cavity Level 1: Cell infiltration, lymphocytes, focal; Grade: minimal (Sprague-Dawley (SD) rats; male): 0
- Nasal cavity Level 2: Acute inflammation with necrosis, focal; Grade: mild (Sprague-Dawley (SD) rats; male): 1
- Nasal cavity Level 2: Acute inflammation with necrosis, focal; Grade: minimal (Sprague-Dawley (SD) rats; male): 0
- Nasal cavity Level 2: Cell infiltration, lymphocytes, focal; Grade: minimal (Sprague-Dawley (SD) rats; male): 0
- Nasal cavity Level 3: Cell infiltration, lymphocytes, focal; Grade: minimal (Sprague-Dawley (SD) rats; male): 2
- Nasal cavity Level 4: Cell infiltration, lymphocytes, focal; Grade: minimal (Sprague-Dawley (SD) rats; male): 0
- IL-6 level in BALF compared to control groups (Sprague-Dawley rats; [1]): about seven times
- MIP-2 level in BALF compared to control groups (Sprague-Dawley rats; [1]): about five times
- Increase of ratio of PMNs in BALF (Sprague-Dawley rats; male rats, high 68 mg/m^3, 4 h): > 204 fold
- Increase of ratio of PMNs in BALF (Sprague-Dawley rats; male rats, middle 21.3 mg/m^3, 4 h): more than 38.7 fold
- Cytokines (MIP-2, TGF-β1, IL-1β, TNF-α, IL-6) in BALF (Sprague-Dawley rats; rats, 8.6–68 mg/m^3, 4 h): increased in a concentration-dependent manner
- LDH in BALF (Sprague-Dawley rats; [2]): increased in a concentration-dependent manner; also recorded: significantly increased in all the exposed groups
- PMNs in BALF (Sprague-Dawley rats; [2]): increased in a concentration-dependent manner; also recorded: significant increase
- Total protein in BALF (Sprague-Dawley rats; [2]): significantly increased in all the exposed groups
